Experimental data as given in US20240336628A1, “NOVEL COMPOUNDS, COMPOSITIONS, AND THERAPEUTIC USES THEREOF” (Breakpoint Therapeutics GmbH, priority 2023, published 2024).

Target: T1, Polθ (truncated Polθ-Hel protein containing the helicase domain 67-894) (Homo sapiens, UniProt O75417)
T1 construct: a truncated Polθ protein (Polθ-Hel containing the helicase domain (67-894))
Test: Polθ ATPase assay (Biological Assay 1, ADP-Glo luminescence)
Format: biochemical
Conditions: Table B (Part B compounds); same assay as Biological Assay 1
Description: The Polθ ATPase assay was used to evaluate inhibitors of Polθ ATPase activity, in vitro. Experiments were performed using a truncated Polθ protein (Polθ-Hel containing the helicase domain (67-894), ATP and a DNA single strand Oligo (5′-CTGTCCTGCATGATG-3′) in the Polθ assay buffer (20 mM Tis-HCl (pH 8.8), MgCl2 5 mM, tween20 0.01%, NP40 0.01%, BSA 0.01%, DTT 1 mM). 2 μL of assay buffer containing Pole-Hel protein (0.5 nM) and DNA substrate (500 nM) was transferred into assay ready plates, containing 0.04 μL of compounds diluted in DMSO. After a 30 minutes incubation at 23° C. in the dark, the reaction was triggered by adding 2 μL of ATP (60 μM), in assay buffer. After 60 minutes at 23° C., 4 μl of ADP-Glo™ Reagent (Glo 1) was added followed by 40 minutes of incubation, then 8 μl of ADP-Glom kinase Detection Reagent (Glo 2) followed by 60 minutes of incubation at 23° C. Luminescence was then measured using Tecan F200 infinite plate reader. Raw data were analysed using GeneData to generate IC50 values.
The Polθ ATPase assay described in Biological Assay 1 above was used to evaluate inhibitors of Polθ ATPase activity for the compounds described in the Experimental Part B above, in vitro.

T1 sequence (O75417 67-894): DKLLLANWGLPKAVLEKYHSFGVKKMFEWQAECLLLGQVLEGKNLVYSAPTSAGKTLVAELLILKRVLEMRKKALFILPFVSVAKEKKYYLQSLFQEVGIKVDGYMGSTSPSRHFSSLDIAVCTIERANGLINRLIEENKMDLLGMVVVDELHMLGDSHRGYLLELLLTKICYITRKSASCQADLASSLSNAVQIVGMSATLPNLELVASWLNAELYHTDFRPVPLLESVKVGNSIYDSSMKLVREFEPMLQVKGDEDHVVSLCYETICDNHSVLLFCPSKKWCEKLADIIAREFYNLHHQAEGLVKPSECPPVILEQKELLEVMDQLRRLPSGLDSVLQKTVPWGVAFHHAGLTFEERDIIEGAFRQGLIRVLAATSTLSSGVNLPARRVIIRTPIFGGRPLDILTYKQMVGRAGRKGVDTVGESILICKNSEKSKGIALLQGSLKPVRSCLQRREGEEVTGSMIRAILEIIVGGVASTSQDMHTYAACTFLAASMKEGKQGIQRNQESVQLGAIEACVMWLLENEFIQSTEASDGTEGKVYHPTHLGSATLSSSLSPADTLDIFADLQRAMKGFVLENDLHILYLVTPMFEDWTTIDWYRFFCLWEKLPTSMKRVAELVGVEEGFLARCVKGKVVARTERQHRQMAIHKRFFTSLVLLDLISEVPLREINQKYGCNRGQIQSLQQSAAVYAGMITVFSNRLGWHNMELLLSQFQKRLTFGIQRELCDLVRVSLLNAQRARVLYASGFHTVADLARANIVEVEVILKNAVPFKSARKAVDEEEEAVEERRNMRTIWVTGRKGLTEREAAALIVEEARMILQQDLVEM

In the case of COc1cnc(Cl)cc1-c1cn(C)c(=O)cc1C(=O)Nc1nc2cnc(N3CCC(O)CC3)nc2s1 [Example 125], the IC50 is reported as less than 100 nM.
